According to article PMC4274890 (Emerging Microbes & Infections, 2014):

Tests used:
SH5190 [1] = assay type: cell-based, A/Shanghai/5190/2013(H7N9)
SH5190 [2] = assay type: cell-based, A/Shanghai/5190/2013(H7N9); remark: listed apart in the source

**Q.** Which “times more potent than T-705 and ribavirin” value (SH5190 [1]) does the source give for `CC(=O)Oc1ccccc1C(=O)Nc1ncc([N+](=O)[O-])s1` [NT-300, nitazoxanide] here?
**A.** over 25 times

**Q.** How did the plaque mean diameter (SH5190 [2]) turn out when `CCC(CC)O[C@@H]1C=C(C(=O)O)C[C@H](N)[C@H]1NC(C)=O` [Oseltamivir carboxylate] was run?
**A.** < 0.1 mm
